Results as given in PubChem BioAssay AID308 (DTP/NCI, 2004).
Where “and” joins values, the source holds several entries; their conditions need not be identical. Equal values may be shown once. Toxic doses and inconclusive results are not listed.

Test system: BDF1 mice, L1210 6-MP/6-TG resistant leukemia ip, survival T/C
Assay: NCI In Vivo Anticancer Drug Screen. Data for tumor model L1210 Leukemia resistant to 6-MP and 6-Thioguanine; NSC 755, NSC 752 (intraperitoneal) in B6D2F1 (BDF1) mice
Settings: endpoint: mean survival time, higher = longer survival
Description: The antitumor activity of compounds was measured in mice bearing transplantable tumors. Survival or tumor size were measured and the results are expressed as the measurement made in the treated group (T) divided by the measurement made in the vehicle treated control group (C). The tumor model used in this assay is L1210 Leukemia resistant to 6-MP and 6-Thioguanine; NSC 755, NSC 752 (intraperitoneal) in B6D2F1 (BDF1) mice

[1] = dose: 7.5 mg/kg/injection, schedule: Q01DX Z (ip), vehicle: carboxymethylcellulose (CMC)
[2] = dose: 75.0 mg/kg/injection, schedule: Q01DX Z (ip), vehicle: carboxymethylcellulose (CMC)
[3] = dose: 300.0 mg/kg/injection, schedule: Q01DX Z (ip), vehicle: carboxymethylcellulose (CMC)
[4] = dose: 1.87 mg/kg/injection, schedule: Q01DX Z (ip), vehicle: saline
[5] = dose: 25.0 mg/kg/injection, schedule: Q01DX Z (ip), vehicle: saline
[6] = dose: 50.0 mg/kg/injection, schedule: Q01DX Z (ip), vehicle: saline
[7] = dose: 20.0 mg/kg/injection, schedule: Q01DX Z (ip), vehicle: carboxymethylcellulose (CMC)
[8] = dose: 25.0 mg/kg/injection, schedule: Q01DX Z (ip), vehicle: carboxymethylcellulose (CMC)
[9] = dose: 100.0 mg/kg/injection, schedule: Q01DX Z (ip), vehicle: carboxymethylcellulose (CMC)

**Q.** What does the source list for `COC12C(COC(N)=O)C3=C(C(=O)C(C)=C(N)C3=O)N1CC1C2N1C` (centres undefined)?
**A.** T/C (dose: 1.3 mg/kg/injection, schedule: Q01DX015 (ip), vehicle: carboxymethylcellulose (CMC)): 166 % of control; T/C (dose: 1.9 mg/kg/injection, schedule: Q01DX015 (ip), vehicle: carboxymethylcellulose (CMC)): 120 % of control; T/C (dose: 2.0 mg/kg/injection, schedule: Q01DX015 (ip), vehicle: carboxymethylcellulose (CMC)): 254 % of control; T/C (dose: 2.9 mg/kg/injection, schedule: Q01DX015 (ip), vehicle: carboxymethylcellulose (CMC)): 181 % of control; T/C (dose: 3.0 mg/kg/injection, schedule: Q01DX015 (ip), vehicle: carboxymethylcellulose (CMC)): 229 % of control; T/C (dose: 4.4 mg/kg/injection, schedule: Q01DX015 (ip), vehicle: carboxymethylcellulose (CMC)): 123 % of control; T/C (dose: 4.5 mg/kg/injection, schedule: Q01DX015 (ip), vehicle: carboxymethylcellulose (CMC)): 189 % of control; T/C (dose: 6.75 mg/kg/injection, schedule: Q01DX015 (ip), vehicle: carboxymethylcellulose (CMC)): 166 % of control

**Q.** What does the source list for `NC(Cc1ccc(N(CCCl)CCCl)cc1)C(=O)O` (centres undefined)?
**A.** T/C (dose: 0.5 mg/kg/injection, schedule: Q01DX Z (ip), vehicle: carboxymethylcellulose (CMC)): 163 % of control; T/C (dose: 0.75 mg/kg/injection, schedule: Q01DX Z (ip), vehicle: carboxymethylcellulose (CMC)): 155 % of control; T/C (dose: 1.0 mg/kg/injection, schedule: Q01DX Z (ip), vehicle: carboxymethylcellulose (CMC)): 188 % of control; T/C (dose: 2.5 mg/kg/injection, schedule: Q01DX Z (ip), vehicle: carboxymethylcellulose (CMC)): 195 % of control; T/C (dose: 3.75 mg/kg/injection, schedule: Q01DX Z (ip), vehicle: carboxymethylcellulose (CMC)): 195 % of control; T/C (dose: 5.0 mg/kg/injection, schedule: Q01DX Z (ip), vehicle: carboxymethylcellulose (CMC)): 155 % of control; T/C [1]: 119 % of control

**Q.** Which results are given for `CN(C)/N=N/c1nc[nH]c1C(N)=O`?
**A.** T/C (dose: 12.5 mg/kg/injection, schedule: Q01DX015 (ip), vehicle: carboxymethylcellulose (CMC)): 104 % of control; T/C (dose: 25.0 mg/kg/injection, schedule: Q01DX015 (ip), vehicle: carboxymethylcellulose (CMC)): 107 % of control; T/C (dose: 50.0 mg/kg/injection, schedule: Q01DX015 (ip), vehicle: carboxymethylcellulose (CMC)): 112 % of control; T/C (dose: 200.0 mg/kg/injection, schedule: Q01DX015 (ip), vehicle: carboxymethylcellulose (CMC)): 115 % of control

**Q.** `C[C@H]1C(=O)O[C@@H]2CCN3CC=C(COC(=O)[C@](C)(O)[C@@]1(C)O)[C@H]23` was tested. Which T/C (dose: 37.5 mg/kg/injection, schedule: Q01DX Z (ip), vehicle: carboxymethylcellulose (CMC)) did it give?
**A.** 91 % of control

**Q.** And the T/C [2]?
**A.** 110 % of control

**Q.** And the T/C (dose: 150.0 mg/kg/injection, schedule: Q01DX Z (ip), vehicle: carboxymethylcellulose (CMC))?
**A.** 107 % of control

**Q.** What about the T/C [3] of the same molecule?
**A.** 104 % of control

**Q.** Which results are given for `CN(C)c1ccc(/C=C/c2ccnc3ccccc23)cc1`?
**A.** T/C [4]: 115 % of control; T/C (dose: 3.75 mg/kg/injection, schedule: Q01DX Z (ip), vehicle: saline): 109 % of control; T/C (dose: 7.5 mg/kg/injection, schedule: Q01DX Z (ip), vehicle: saline): 115 % of control; T/C (dose: 15.0 mg/kg/injection, schedule: Q01DX Z (ip), vehicle: saline): 110 % of control; T/C [5]: 102 % of control; T/C [6]: 90 % of control

**Q.** Which T/C [1] does the source give for `Cn1cnc([N+](=O)[O-])c1Sc1nc(N)nc2nc[nH]c12` here?
**A.** 95 % of control

**Q.** And the T/C (dose: 10.0 mg/kg/injection, schedule: Q01DX Z (ip), vehicle: carboxymethylcellulose (CMC))?
**A.** 92 % of control

**Q.** And the T/C (dose: 15.0 mg/kg/injection, schedule: Q01DX Z (ip), vehicle: carboxymethylcellulose (CMC))?
**A.** 90 % of control

**Q.** And the T/C [7]?
**A.** 89 % of control

**Q.** For `CCC1(Sc2ncnc3nc[nH]c23)C(=O)NC(=O)NC1=O`, which T/C (dose: 6.25 mg/kg/injection, schedule: Q01DX010 (ip), vehicle: alkali diluted with saline) is on record?
**A.** 104 % of control

**Q.** What about the T/C (dose: 12.5 mg/kg/injection, schedule: Q01DX010 (ip), vehicle: alkali diluted with saline) of the same molecule?
**A.** 96 % of control

**Q.** What about the T/C (dose: 25.0 mg/kg/injection, schedule: Q01DX010 (ip), vehicle: alkali diluted with saline) of the same molecule?
**A.** 107 % of control

**Q.** What about the T/C (dose: 50.0 mg/kg/injection, schedule: Q01DX010 (ip), vehicle: alkali diluted with saline) of the same molecule?
**A.** 102 % of control

**Q.** What about the T/C (dose: 100.0 mg/kg/injection, schedule: Q01DX010 (ip), vehicle: alkali diluted with saline) of the same molecule?
**A.** 104 % of control

**Q.** What about the T/C (dose: 200.0 mg/kg/injection, schedule: Q01DX010 (ip), vehicle: alkali diluted with saline) of the same molecule?
**A.** 107 % of control

**Q.** How did the T/C [5] turn out when `COS(C)(=O)=O` was run?
**A.** 105 % of control

**Q.** What about the T/C [6] of the same molecule?
**A.** 114 % of control

**Q.** What about the T/C (dose: 75.0 mg/kg/injection, schedule: Q01DX Z (ip), vehicle: saline) of the same molecule?
**A.** 116 % of control

**Q.** What about the T/C (dose: 100.0 mg/kg/injection, schedule: Q01DX Z (ip), vehicle: saline) of the same molecule?
**A.** 106 % of control

**Q.** Which T/C (dose: 12.5 mg/kg/injection, schedule: Q01DX Z (ip), vehicle: carboxymethylcellulose (CMC)) does the source give for `Clc1ncnc2nc[nH]c12` here?
**A.** 97 % of control

**Q.** And the T/C [8]?
**A.** 93 % of control

**Q.** And the T/C (dose: 50.0 mg/kg/injection, schedule: Q01DX Z (ip), vehicle: carboxymethylcellulose (CMC))?
**A.** 92 % of control and 104 % of control

**Q.** And the T/C [9]?
**A.** 90 % of control

**Q.** And the T/C (dose: 200.0 mg/kg/injection, schedule: Q01DX001 (ip), vehicle: carboxymethylcellulose (CMC))?
**A.** 99 % of control and 104 % of control

**Q.** What about the T/C (dose: 200.0 mg/kg/injection, schedule: Q01DX Z (ip), vehicle: carboxymethylcellulose (CMC)) of the same molecule?
**A.** 90 % of control

**Q.** What about the T/C (dose: 267.0 mg/kg/injection, schedule: Q01DX001 (ip), vehicle: carboxymethylcellulose (CMC)) of the same molecule?
**A.** 102 % of control and 107 % of control

**Q.** What about the T/C [3] of the same molecule?
**A.** 88 % of control

**Q.** What about the T/C (dose: 400.0 mg/kg/injection, schedule: Q01DX001 (ip), vehicle: carboxymethylcellulose (CMC)) of the same molecule?
**A.** 100 % of control and 102 % of control

**Q.** With `CCOC(=O)Sc1ncnc2nc[nH]c12` as the molecule, how does the T/C (dose: 14.0 mg/kg/injection, schedule: Q01DX Z (ip), vehicle: saline) read?
**A.** 95 % of control

**Q.** And the T/C (dose: 28.0 mg/kg/injection, schedule: Q01DX Z (ip), vehicle: saline)?
**A.** 95 % of control

**Q.** And the T/C (dose: 56.0 mg/kg/injection, schedule: Q01DX Z (ip), vehicle: saline)?
**A.** 90 % of control

**Q.** Which results are given for `NC(=O)N(CCCl)N=O`?
**A.** T/C (dose: 0.47 mg/kg/injection, schedule: Q01DX Z (ip), vehicle: saline): 220 % of control; T/C (dose: 0.93 mg/kg/injection, schedule: Q01DX Z (ip), vehicle: saline): 265 % of control; T/C (dose: 1.25 mg/kg/injection, schedule: Q01DX Z (ip), vehicle: saline): 236 % of control; T/C [4]: 158 % of control; T/C (dose: 5.0 mg/kg/injection, schedule: Q01DX Z (ip), vehicle: saline): 92 % of control

**Q.** How did the T/C [7] turn out when `O=c1[nH]c(=O)n(C2CC(O)C(CO)O2)cc1I` (centres undefined) was run?
**A.** 108 % of control

**Q.** And the T/C [8]?
**A.** 121 % of control

**Q.** And the T/C (dose: 30.0 mg/kg/injection, schedule: Q01DX Z (ip), vehicle: carboxymethylcellulose (CMC))?
**A.** 95 % of control

**Q.** What about the T/C (dose: 40.0 mg/kg/injection, schedule: Q01DX Z (ip), vehicle: carboxymethylcellulose (CMC)) of the same molecule?
**A.** 87 % of control

**Q.** What about the T/C (dose: 60.0 mg/kg/injection, schedule: Q01DX Z (ip), vehicle: carboxymethylcellulose (CMC)) of the same molecule?
**A.** 108 % of control

**Q.** What about the T/C [2] of the same molecule?
**A.** 182 % of control

**Q.** What about the T/C [9] of the same molecule?
**A.** 154 % of control

**Q.** And the T/C (dose: 125.0 mg/kg/injection, schedule: Q01DX Z (ip), vehicle: carboxymethylcellulose (CMC))?
**A.** 115 % of control

**Q.** And the T/C (dose: 250.0 mg/kg/injection, schedule: Q01DX Z (ip), vehicle: carboxymethylcellulose (CMC))?
**A.** 100 % of control

**Q.** What about the T/C (dose: 375.0 mg/kg/injection, schedule: Q01DX Z (ip), vehicle: carboxymethylcellulose (CMC)) of the same molecule?
**A.** 93 % of control

**Q.** For `Nc1nc2n[nH]nc2c(=O)[nH]1`, which T/C (dose: 12.5 mg/kg/injection, schedule: Q01DX Z (ip), vehicle: water) is on record?
**A.** 100 % of control

**Q.** And the T/C (dose: 25.0 mg/kg/injection, schedule: Q01DX Z (ip), vehicle: water)?
**A.** 104 % of control

**Q.** And the T/C (dose: 50.0 mg/kg/injection, schedule: Q01DX Z (ip), vehicle: water)?
**A.** 98 % of control

**Q.** What about the T/C (dose: 100.0 mg/kg/injection, schedule: Q01DX Z (ip), vehicle: water) of the same molecule?
**A.** 92 % of control

**Q.** And the T/C (dose: 200.0 mg/kg/injection, schedule: Q01DX Z (ip), vehicle: water)?
**A.** 95 % of control

**Q.** For `O=c1[nH]cnc2c1nnn2C1OC(CO)C(O)C1O` (centres undefined), which T/C (dose: 50.0 mg/kg/injection, schedule: Q01DX009 (ip), vehicle: saline) is on record?
**A.** 111 % of control

**Q.** And the T/C (dose: 76.0 mg/kg/injection, schedule: Q01DX009 (ip), vehicle: saline)?
**A.** 118 % of control

**Q.** And the T/C (dose: 114.0 mg/kg/injection, schedule: Q01DX009 (ip), vehicle: saline)?
**A.** 156 % of control and 171 % of control

**Q.** And the T/C (dose: 256.0 mg/kg/injection, schedule: Q01DX009 (ip), vehicle: saline)?
**A.** 112 % of control
